Source: US20220096664A1, “STABILIZED FORMULATIONS CONTAINING IODINATED CONTRAST AGENTS AND CYCLODEXTRINS” (Verrow Pharmaceuticals, Inc., priority 2012, published 2022)
Where two headings read alike, the source gives them in different places.

Experiments:
[1] = type: physicochemical
Procedure: The lamps were switched on and the solutions irradiated for 18 to 24 hours for the ultraviolet (UV) lamps or 72 to 90 hours for the visible (VIS) light lamps. At the end of the selected irradiation time, the cuvettes were removed from the photolysis chamber and mixed by inversion 2-times. The caps were then removed and 40 microliter aliquots taken and diluted with 1 mL of an aqueous solution containing ˜0.9 mg/mL sodium thiosulfate. The thiosulfate solution converted any I2, IO3^−, and I3^− present in the solution tor such that total iodine species could be determined in one assay.
The diluted solutions were assayed by high pressure liquid chromatography (HPLC) using a 4.6×250 mm, C-18, 5 micron particle size, reversed phase column with detection at 280 nm for the contrast agent and 230 nm for the thiosulfate and the iodide ion (r). A mobile phase of 30:70 methanol:aqueous buffer (50 mM KH2PO4+7 mL/L 40% tetrabutyl ammonium hydroxide) at 0.75 mL/min was used for elution. Injection volume was 20 microliters. External standards were prepared containing each contrast agent, potassium iodide, and sodium thiosulfate solution and analyzed along with the irradiated samples. The results were reported as weight percentage iodide formed (mg iodide/mg contrast agent times 100).
Aqueous solutions were prepared containing 50 mM iodinated contrast agent, 10 mM tromethamine HCl buffer (TRIS), with and without sulfobutylether beta-cyclodextrin with an average degree of substitution-7 (SBE7-β-CD), or 2-hydroxypropyl beta-cyclodextrin with an average degree of substitution of ˜6.3 (HP6.3-β-CD) or ˜4.3 (HP4.3-β-CD). The iohexol solution was prepared by dissolving solid iohexol powder while the other solutions were prepared by diluting commercial formulated products and adding sufficient TRIS buffer to reach 10 mM. The pH of the solutions was adjusted to 7.4 with 0.1N hydrochloric acid.
Aliquots of the solutions were irradiated with visible light for 72 hours (0.52 million lux hours). Other aliquots were autoclaved for 20 minutes at 121° C., cooled to room temperature and then irradiated with ultraviolet light for 18 hours (119 watt hours/m2). The solutions were then processed, analyzed and reported as in Example 2, except that the chromatographic peaks of the contrast agents were evaluated at 300 nm for both samples and standards. […]
Aqueous formulations were prepared containing iodinated contrast agents at concentrations used commercially in medical procedures. Sulfobutylether-cyclodextrin, sodium salt, average degree of substitution ˜7 (SBE7CD) was added at varying agent:CD mole ratios. The formulations were placed in glass vials, sealed with rubber stoppers and aluminum crimps, and autoclaved at 121° C. for 20 minutes. Aliquots of the autoclaved solutions were exposed to UV light for 24 hours (159 watt hours/m^2 or VIS light for 72 hours (0.52 million lux hours) as in Example 2. The solutions were then processed, analyzed and reported as in Example 2, with the following two exceptions; 1) the chromatographic peaks of the contrast agents were evaluated at 300 nm for both samples and standards, and 2) only 20 microliter sample aliquots were taken and diluted for HPLC analysis due to the higher concentrations used in this study. Results of the study are presented in the table below along with the solution compositions.

[2] = type: physicochemical; details: for Iodide formed: 50 mM agent, 10 mM TRIS, pH 7.4, autoclaved then UV 18 h; for percent change in iodide degradants, UV: 24 h; for percent change in iodide degradants, UV / percent change in iodide degradants, VIS: pH 7.1; for percent change in iodide degradants, VIS: 72 h

percent change in iodide degradants formed in the presence of the SCD ([1]; 20 min, 50 mM, pH 7.4): (−30.8%) | Iodide Formed, Autoclaved ([1]; Ioversol 160 mg I/mL, pH 7.1, agent:SBE7CD 1:0.05): 0.0241 wt % | Iodide Formed, Autoclaved ([1]; Ioversol 160 mg I/mL, pH 7.1, no SCD (1:0)): 0.0244 wt % | Iodide Formed, Autoclaved ([1]; Ioversol 240 mg I/mL, pH 7.1, agent:SBE7CD 1:0.05): 0.0162 wt % | Iodide Formed, Autoclaved ([1]; Ioversol 240 mg I/mL, pH 7.1, no SCD (1:0)): 0.0160 wt % | Iodide Formed, Autoclaved ([1]; Ioversol 300 mg I/mL, pH 7.1, agent:SBE7CD 1:0.05): 0.0129 wt % | Iodide Formed, Autoclaved ([1]; Ioversol 300 mg I/mL, pH 7.1, no SCD (1:0)): 0.0135 wt % | Iodide Formed, Autoclaved ([1]; Ioversol 320 mg I/mL, pH 7.1, agent:SBE7CD 1:0.05): 0.0127 wt % | Iodide Formed, Autoclaved ([1]; Ioversol 320 mg I/mL, pH 7.1, no SCD (1:0)): 0.0130 wt % | Iodide Formed, Autoclaved ([1]; Ioversol 350 mg I/mL, pH 7.1, agent:SBE7CD 1:0.05): 0.0120 wt % | Iodide Formed, Autoclaved ([1]; Ioversol 350 mg I/mL, pH 7.1, no SCD (1:0)): 0.0124 wt % | Iodide formed ([2]; agent:SBE7-β-CD 1:0.1): 0.545 wt % | Iodide formed ([2]; no SCD (1:0)): 0.665 wt % | percent change in iodide degradants formed in the presence of the SCD ([2]; 18 h, 50 mM, pH 7.4): (−18%) | percent change in iodide degradants, UV ([2]; 160 mg I/mL): (−24.0%) | percent change in iodide degradants, UV ([2]; 240 mg I/mL): (−19.2%) | percent change in iodide degradants, UV ([2]; 300 mg I/mL): (−17.2%) | percent change in iodide degradants, UV ([2]; 320 mg I/mL): (−36.7%) | percent change in iodide degradants, UV ([2]; 350 mg I/mL): (−26.8%) | percent change in iodide degradants, VIS ([2]; 160 mg I/mL): (−9.9%) | percent change in iodide degradants, VIS ([2]; 240 mg I/mL): (−11.9%) | percent change in iodide degradants, VIS ([2]; 300 mg I/mL): (−17.4%) | percent change in iodide degradants, VIS ([2]; 320 mg I/mL): (−14.2%) | percent change in iodide degradants, VIS ([2]; 350 mg I/mL): (−11.7%) | Iodide Formed, UV ([2]; Ioversol 160 mg I/mL, pH 7.1, agent:SBE7CD 1:0.05, autoclaved then UV 24 h): 0.171 wt % | Iodide Formed, VIS ([2]; Ioversol 160 mg I/mL, pH 7.1, agent:SBE7CD 1:0.05, autoclaved then VIS 72 h): 0.0646 wt % | Iodide Formed, UV ([2]; Ioversol 160 mg I/mL, pH 7.1, no SCD (1:0), autoclaved then UV 24 h): 0.225 wt % | Iodide Formed, VIS ([2]; Ioversol 160 mg I/mL, pH 7.1, no SCD (1:0), autoclaved then VIS 72 h): 0.0717 wt % | Iodide Formed, UV ([2]; Ioversol 240 mg I/mL, pH 7.1, agent:SBE7CD 1:0.05, autoclaved then UV 24 h): 0.126 wt % | Iodide Formed, VIS ([2]; Ioversol 240 mg I/mL, pH 7.1, agent:SBE7CD 1:0.05, autoclaved then VIS 72 h): 0.0400 wt % | Iodide Formed, UV ([2]; Ioversol 240 mg I/mL, pH 7.1, no SCD (1:0), autoclaved then UV 24 h): 0.156 wt % | Iodide Formed, VIS ([2]; Ioversol 240 mg I/mL, pH 7.1, no SCD (1:0), autoclaved then VIS 72 h): 0.0454 wt % | Iodide Formed, UV ([2]; Ioversol 300 mg I/mL, pH 7.1, agent:SBE7CD 1:0.05, autoclaved then UV 24 h): 0.111 wt % | Iodide Formed, VIS ([2]; Ioversol 300 mg I/mL, pH 7.1, agent:SBE7CD 1:0.05, autoclaved then VIS 72 h): 0.0298 wt % | Iodide Formed, UV ([2]; Ioversol 300 mg I/mL, pH 7.1, no SCD (1:0), autoclaved then UV 24 h): 0.134 wt % | Iodide Formed, VIS ([2]; Ioversol 300 mg I/mL, pH 7.1, no SCD (1:0), autoclaved then VIS 72 h): 0.0361 wt % | Iodide Formed, UV ([2]; Ioversol 320 mg I/mL, pH 7.1, agent:SBE7CD 1:0.05, autoclaved then UV 24 h): 0.0778 wt % | Iodide Formed, VIS ([2]; Ioversol 320 mg I/mL, pH 7.1, agent:SBE7CD 1:0.05, autoclaved then VIS 72 h): 0.0277 wt % | Iodide Formed, UV ([2]; Ioversol 320 mg I/mL, pH 7.1, no SCD (1:0), autoclaved then UV 24 h): 0.123 wt % | Iodide Formed, VIS ([2]; Ioversol 320 mg I/mL, pH 7.1, no SCD (1:0), autoclaved then VIS 72 h): 0.0323 wt % | Iodide Formed, UV ([2]; Ioversol 350 mg I/mL, pH 7.1, agent:SBE7CD 1:0.05, autoclaved then UV 24 h): 0.0864 wt % | Iodide Formed, VIS ([2]; Ioversol 350 mg I/mL, pH 7.1, agent:SBE7CD 1:0.05, autoclaved then VIS 72 h): 0.0250 wt % | Iodide Formed, UV ([2]; Ioversol 350 mg I/mL, pH 7.1, no SCD (1:0), autoclaved then UV 24 h): 0.118 wt % | Iodide Formed, VIS ([2]; Ioversol 350 mg I/mL, pH 7.1, no SCD (1:0), autoclaved then VIS 72 h): 0.0283 wt %
SMILES: O=C(NCC(O)CO)c1c(I)c(C(=O)NCC(O)CO)c(I)c(N(CCO)C(=O)CO)c1I (centres unmarked) [Ioversol, ioversol]
